Source: PubChem BioAssay (NCI)
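The compound was tested at five concentrations on cells cultured in 96-well plates, with a 48-hour exposure period. At the GI50, growth is halved. At the TGI there is no net growth.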

Experiments:
Test in all cases: growth of human tumour cells (NCI), 48 h
SF-539 CNS = tested on: SF-539 CNS
A498 renal = tested on: A498 renal
K-562 leukemia = tested on: K-562 leukemia
UO-31 renal = tested on: UO-31 renal
OVCAR-4 ovarian = tested on: OVCAR-4 ovarian
SK-MEL-28 melanoma = tested on: SK-MEL-28 melanoma
IGROV1 ovarian = tested on: IGROV1 ovarian
SN12C renal = tested on: SN12C renal
SK-MEL-5 melanoma = tested on: SK-MEL-5 melanoma
HOP-92 NSCLC = tested on: HOP-92 NSCLC

| SMILES | TGI (SF-539 CNS) [µM] | TGI (A498 renal) [µM] | TGI (K-562 leukemia) [µM] | TGI (UO-31 renal) [µM] | TGI (OVCAR-4 ovarian) [µM] | TGI (SK-MEL-28 melanoma) [µM] | TGI (IGROV1 ovarian) [µM] | TGI (SN12C renal) [µM] | TGI (SK-MEL-5 melanoma) [µM] | GI50 (SF-539 CNS) [nM] | GI50 (A498 renal) [µM] | GI50 (UO-31 renal) [µM] | GI50 (SK-MEL-28 melanoma) [µM] | GI50 (IGROV1 ovarian) [µM] | GI50 (HOP-92 NSCLC) [µM] | TGI (HOP-92 NSCLC) [µM] | GI50 (SN12C renal) [nM] | GI50 (SK-MEL-5 melanoma) [nM] | GI50 (K-562 leukemia) [µM] | GI50 (OVCAR-4 ovarian) [µM] |
| --- | --- | --- | --- | --- | --- | --- | --- | --- | --- | --- | --- | --- | --- | --- | --- | --- | --- | --- | --- | --- |
| CC1=C(C)C(=O)c2c(cc3ccccn23)C1=O | 37.1 | 46.1 | > 100 | 65.1 | > 100 | 34 | 54.5 | 27.1 | 22.1 |  |  |  |  |  |  |  |  |  |  |  |
| COc1ccc(-c2n/c(=C\c3c(O)[nH]c4ccc(OC)cc34)cc3c2=Nc2ccccc2-3)cc1 | 3.4 | 25.4 |  | 56.1 |  | 3.32 | > 100 | > 100 | 2.91 | 1850 | 11.6 | 18 | 1.9 | 12 | 13.8 | 36.1 | 4000 | 1530 |  |  |
| O=[N+]([O-])C1C2C=CC(C2)[C@H]1c1ccco1 (stereo partly drawn) | > 100 | > 100 | > 100 | > 100 | > 100 |  | > 100 | > 100 | > 100 |  |  |  |  |  |  | 18.4 |  |  |  |  |
| COc1ccc2c(c1)/C(=C\c1c(C)nc3sccn13)C(=O)N2 |  | 0.0646 | > 100 | 20.3 | > 100 | > 100 | 3.69 | > 91.7 | 3.39 |  | < 0.01 | 0.0147 | 66.3 | < 0.0252 | 0.83 | > 100 | 88.9 | < 47.4 | 0.0956 | 4.01 |
| N#Cc1c(N2CCCC2)[nH]c(=O)c(C(c2c(Cl)cccc2Cl)c2c(O)c(C#N)c(N3CCCC3)[nH]c2=O)c1O | 10.9 |  | > 100 | 35.9 | 33.7 | 40.6 | 56.5 | 33.9 | 13.5 | 369 |  | 16.1 | 5.34 | 19 | 10.2 | 28.5 | 13600 | 409 | 27.4 | 17.5 |
| O=C(/C=C/c1ccccc1)c1cc(Br)ccc1O |  | 26.8 | 43.1 | 22.9 | 30.3 | 31.5 | 25 | 29.7 | 34.6 |  |  |  |  |  |  | 18.3 |  |  |  |  |
| Cc1cc(N(CCC#N)CCC#N)ccc1N=Nc1cccc(C(=O)O)c1 | > 100 | > 100 | > 100 | > 100 | > 100 | > 100 | > 100 | > 100 | > 100 |  |  |  |  |  |  |  |  |  |  |  |
| CSc1ccc(C2OC(=O)c3ccccc32)c2ccccc12 (stereo not drawn) | > 100 |  | > 100 | > 100 | > 100 | > 100 | > 100 | > 100 | > 100 |  |  |  |  |  |  | > 100 |  |  |  |  |
| CCCCC(CC)CN=C(N)NC(N)=NCCCCCCN=C(N)NC(N)=NCC(CC)CCCC (stereo not drawn) |  |  |  | 10.1 | 4.85 | 5.03 |  | 4.39 |  |  |  | 3.03 | 2.26 |  |  |  | 1520 |  |  | 1.9 |
| Cc1ccc(N=Cc2ccc3c(c2)OCO3)cc1C | > 100 | > 100 |  | > 100 |  | > 100 | > 100 | > 100 | > 100 |  |  |  |  |  |  | > 100 |  |  |  |  |
